Our source for the IC50 and EC50 values is patent US6869964B2, “Heterocyclicsulfonamide hepatitis C virus inhibitors” (Bristol-Myers Squibb Company, priority 2002, dated 2005).

Test [1] concerns the target T1, HCV NS3/4A protease complex (BMS strain) (Hepatitis C virus genotype 1a, UniProt P27958, C1454S).
T1 construct: HCV NS3/4A protease complex (amino acids 1027 to 1711); inferred from pET21b vector and Ni-NTA purification; made in house; host or cells: Escherichia coli BL21 (DE3), pET21b
Briefly: Recombinant HCV NS3/4A protease complex FRET peptide assay, BMS strain. Type of test: biochemical, HCV genotype 1a. The note with it: NS3/4A BMS Strain, activity range; read-out: IC50 a, b, c (Activity Table). An excerpt:
Recombinant HCV NS3/4A Protease Complex FRET Peptide Assay
The purpose of this in vitro assay was to measure the inhibition of HCV NS3 protease complexes, derived from the BMS, H77C or J4l6S strains, as described below, by compounds of the present invention. This assay provides an indication of how effective compounds of the present invention would be in inhibiting HCV proteolytic activity.
Serum from an HCV-infected patient was obtained from Dr. T. Wright, San Francisco Hospital. An engineered full-length cDNA template of the HCV genome (BMS strain) was constructed from DNA fragments obtained by reverse transcription-PCR (RT-PCR) of serum RNA and using primers selected on the basis of homology between other genotype la strains. From the determination of the entire genome sequence, a genotype la was assigned to the HCV isolate according to the classification of Simmonds et al. (See P Simmonds, K A Rose, S Graham, S W Chan, F McOmish, B C Dow, E A Follett, P L Yap and H Marsden, J. Clin. Microbiol., 31(6), 1493-1503 (1993)). […] The infectious clones, H77C (1a genotype) and J4 L6S (1b genotype) were obtained from R. Purcell (NIH) and the sequences are published in Genbank (AAB67036, see Yanagi, M., Purcell, R. H., Emerson, S. U. and Bukh, J. Proc. Natl. Acad. Sci. U.S.A. 94(16),8738-8743 (1997); AF054247, see Yanagi, M., St Claire, M., Shapiro, M., Emerson, S. U., Purcell, R. H. and Bukh, J, Virology 244 (1), 161-172. (1998)).
The BMS, H77C and J4 L6S strains were used for production of recombinant NS3/4A protease complexes. DNA encoding the recombinant HCV NS3/4A protease complex (amino acids 1027 to 1711) for these strains were manipulated as described by P. Gallinari et al. (see Gallinari P, Paolini C, Brennan D, Nardi C, Steinkuhler C, De Francesco R. Biochemistry. 38(17):5620-32, (1999)). Briefly, a three-lysine solubilizing tail was added at the 3′-end of the NS4A coding region. The cysteine in the P1 position of the NS4A-NS4B cleavage site (amino acid 1711) was changed to a glycine to avoid the proteolytic cleavage of the lysine tag. Furthermore, a cysteine to serine mutation was introduced by PCR at amino acid position 1454 to prevent the autolytic cleavage in the NS3 helicase domain. The variant DNA fragment was cloned in the pET21b bacterial expression vector (Novagen) and the NS3/4A complex was expressed in Escherichia coli strain BL21 (DE3) (Invitrogen) following the protocol described by P. Gallinari et al. (see Gallinari P, Brennan D, Nardi C, Brunetti M, Tomei L, Steinkuhler C, De Francesco R., J Virol. 72(8):6758-69 (1998)) with modifications. Briefly, NS3/4A expression was induced with 0.5 mM Isopropyl β-D-1-thiogalactopyranoside (IPTG) for 22 hr at 20° C. A typical fermentation (10 L) yielded approximately 80 g of wet cell paste. The cells were resuspended in lysis buffer (10 mL/g) consisting of 25 mM N-(2-Hydroxyethyl)Piperazine-N′-(2-Ethane Sulfonic acid) (HEPES), pH7.5, 20% glycerol, 500 mM Sodium Chloride (NaCl), 0.5% Triton-X100, 1 ug/ml lysozyme, 5 mM Magnesium Chloride (MgCl2), 1 ug/ml DnaseI, 5 mM β-Mercaptoethanol (βME), Protease inhibitor—Ethylenediamine Tetraacetic acid (EDTA) free (Roche), homogenized and incubated for 20 mins at 4° C. The homogenate was sonicated and clarified by ultra-centrifugation at 235000 g for lhr at 4° C. Imidazole was added to the supernatant to a final concentration of 15 mM and the pH adjusted to 8.0. The crude protein extract was loaded on a Nickel—Nitrilotriacetic acid (Ni—NTA) column pre-equilibrated with buffer B (25 mM HEPES, pH8.0, 20% glycerol, 500 mM NaCl, 0.5% Triton-X100, 15 mM imidazole, 5 mM βME). The sample was loaded at a flow rate of 1 mL/min. The column was washed with 15 column volumes of buffer C (same as buffer B except with 0.2% Triton-X100). The protein was eluted with 5 column volumes of buffer D (same as buffer C except with 200 mM Imidazole). […]

The subject of test [2] is HCV replicon in Huh7 cells. Briefly: HCV replicon cell-based assay (FRET). More on the design: species or system HCV strain 1B. To be noted: Hepatitis C virus, Huh-7; replicon, activity range; read-out: EC50 a, b, c (Activity Table). An excerpt:
HCV Replicon Cell-based Assay
An HCV replicon whole cell system was established as described by Lohmann V, Korner F, Koch J, Herian U, Theilmann L, Bartenschlager R., Science 285(5424): 110-3 (1999). This system enabled us to evaluate the effects of our HCV Protease compounds on HICV RNA replication. Briefly, using the HCV strain 1B sequence described in the Lohmann paper (Assession number: AJ238799), an HCV cDNA was generated encoding the 5′ internal ribosome entry site (IRES), the neomycin resistance gene, the EMCV (encephalomyocarditis virus)-IRES and the HCV nonstructural proteins, NS3-NS5B, and 3′ non-translated region (NTR). In vitro transcripts of the cDNA were transfected into the human hepatoma cell line, Huh7. […] Resulting cell lines were characterized for positive and negative strand RNA production and protein production over time.
Huh7 cells, constitutively expressing the HCV replicon, were grown in Dulbecco's Modified Eagle Media (DMEM) containing 10% Fetal calf serum (FCS) and 1 mg/ml G418 (Gibco-BRL). Cells were seeded the night before (1.5×10^4 cells/well) in 96-well tissue-culture sterile plates. Compound and no compound controls were prepared in DMEM containing 4% FCS, 1:100 Penicillin/Streptomysin, 1:100 L-glutamine and 5% DMSO in the dilution plate (0.5% DMSO final concentration in the assay). Compound/DMSO mixes were added to the cells and incubated for 4 days at 37° C. After 4 days, plates were rinsed thoroughly with Phosphate-Buffered Saline (PBS) (3 times 150 μl). The cells were lysed with 25 μl of a lysis assay reagent containing the FRET peptide (RET S1, as described for the in vitro enzyme assay). The lysis assay reagent was made from 5× cell Luciferase cell culture lysis reagent(Promega #E153A) diluted to 1× with distilled water, NaCl added to 150 mM final, the FRET peptide diluted to 10 μM final from a 2 mM stock in 100% DMSO. The plate was then placed into the Cytofluor 4000 instrument which had been set to 340 nm excitation/490 emission, automatic mode for 21 cycles and the plate read in a kinetic mode. EC50 determinations were carried out as described for the IC50 determinations.

Some results are limits rather than exact numbers.

T1 sequence (P27958 1027-1657 C1454S): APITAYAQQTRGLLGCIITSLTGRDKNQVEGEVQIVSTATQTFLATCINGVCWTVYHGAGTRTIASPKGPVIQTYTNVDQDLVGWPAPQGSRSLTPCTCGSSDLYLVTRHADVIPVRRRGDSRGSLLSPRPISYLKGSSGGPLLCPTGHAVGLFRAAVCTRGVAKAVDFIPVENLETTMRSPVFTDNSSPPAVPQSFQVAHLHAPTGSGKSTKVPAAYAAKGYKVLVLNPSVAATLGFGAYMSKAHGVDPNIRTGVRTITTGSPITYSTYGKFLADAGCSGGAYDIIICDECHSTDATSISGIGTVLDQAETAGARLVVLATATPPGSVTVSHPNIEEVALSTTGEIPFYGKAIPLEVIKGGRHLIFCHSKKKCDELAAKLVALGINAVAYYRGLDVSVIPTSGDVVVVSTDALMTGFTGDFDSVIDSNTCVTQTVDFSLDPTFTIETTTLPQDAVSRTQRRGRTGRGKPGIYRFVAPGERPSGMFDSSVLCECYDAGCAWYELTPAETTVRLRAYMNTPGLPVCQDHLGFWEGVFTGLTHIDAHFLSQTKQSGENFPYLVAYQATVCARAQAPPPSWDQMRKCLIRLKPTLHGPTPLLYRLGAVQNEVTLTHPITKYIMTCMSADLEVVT
T1 sequence (P27958 1658-1711 partner, looked up, stated change not applied): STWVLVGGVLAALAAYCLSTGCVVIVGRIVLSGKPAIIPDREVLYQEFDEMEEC

With `C=CC1C[C@]1(NC(=O)[C@@H]1C[C@@H](Oc2cc(-c3ccccc3)nc3cc(OC)ccc23)CN1C(=O)[C@@H](NC(=O)OC(C)(C)C)C(C)(C)C)C(=O)NS(=O)(=O)c1cc([N+](=O)[O-])c(Cl)s1` (stereo in doubt) [Compound 16, {1-[2-[1-(5-Chloro-4-nitro-thiophene-2-sulfonylaminocarbonyl)-2-vinylcyclopropylcarbamoyl]-4-(7-methoxy-2-phenyl-quinolin-4-yloxy)-pyrrolidine-1-carbonyl]-2,2-dimethyl-propyl}carbamic acid tert-butyl ester], in test [1], the IC50 (as a rule, the concentration at which inhibition is half-maximal) was less than 100 nM. In addition, in test [2], the concentration giving a half-maximal response (EC50) (usually the concentration needed to bring the measured effect to its halfway point) is 100 to 1000 nM.

Regarding `C=CC1C[C@]1(NC(=O)[C@@H]1C[C@@H](Oc2cc(-c3ccccc3)nc3cc(OC)ccc23)CN1C(=O)[C@@H](NC(=O)OC(C)(C)C)C(C)(C)C)C(=O)NS(=O)(=O)c1ccc(Br)s1` (stereo in doubt) [Compound 4, (1-{4-(7-Methoxy-2-phenylquinolin-4-yloxy)-2-[1-(5-Bromothiophene-2-sulfonylaminocarbonyl)-2-vinyl-cyclopropylcarbamoyl]pyrrolidine-1-carbonyl}-2,2-dimethylpropyl)carbamic acid tert-butyl ester], the concentration for half-maximal inhibition (IC50) in test [1] is less than 100 nM. Further, in test [2], the half-maximal effective concentration (EC50) fell in the range of 100 to 1000 nM.

For the compound `C=CC1C[C@]1(NC(=O)[C@@H]1C[C@@H](Oc2cc(-c3ccccc3)nc3cc(OC)ccc23)CN1C(=O)[C@@H](NC(=O)OC(C)(C)C)C(C)(C)C)C(=O)NS(=O)(=O)c1sc(C)nc1C` (stereo in doubt) [Compound 9, {1-[2-{1-[2,4-dimethylthiazole-5-sulfonylaminocarbonyl]-2-vinylcyclopropylcarbamoyl}-4-(7-methoxy-2-phenyl-quinolin-4-yloxy)pyrrolidine-1-carbonyl]-2,2-dimethylpropyl}carbamic acid tert-butyl ester], in test [1], the IC50 is less than 100 nM. Besides, the EC50 in test [2] was in the range of 100 to 1000 nM.

On to `C=CC1C[C@]1(NC(=O)[C@@H]1C[C@@H](Oc2cc(-c3ccccc3)nc3cc(OC)ccc23)CN1C(=O)[C@@H](NC(=O)OC(C)(C)C)C(C)(C)C)C(=O)NS(=O)(=O)c1ccc(Cl)s1` (stereo in doubt) [Compound 2, (1-{4-(7-Methoxy-2-phenylquinolin-4-yloxy)-2-[1-(5-Chlorothiophene-2-sulfonylaminocarbonyl)-2-vinyl-cyclopropylcarbamoyl]-pyrrolidine-1-carbonyl}-2,2-dimethylpropyl)carbamic acid tert-butyl ester], for which the IC50 in test [1] was less than 100 nM. In test [2], the concentration giving a half-maximal response (EC50) fell in the range of 100 to 1000 nM.

For the compound `C=CC1C[C@]1(NC(=O)[C@@H]1C[C@@H](Oc2cc(-c3ccccc3)nc3cc(OC)ccc23)CN1C(=O)[C@@H](NC(=O)OC(C)(C)C)C(C)(C)C)C(=O)NS(=O)(=O)c1ccc(Sc2ccc(Cl)cc2)s1` (stereo in doubt) [Compound 5, {1-[2-{1-[5-(4-Chlorophenylsulfanyl)-thiophene-2-sulfonylamino-carbonyl]-2-vinyl-cyclopropylcarbamoyl}-4-(7-methoxy-2-phenyl-quinolin-4-yloxy)-pyrrolidine-1-carbonyl]-2,2-dimethylpropyl}carbamic acid tert-butyl ester], the IC50 in test [1] fell in the range of 100 to 1000 nM. The concentration for a half-maximal effect (EC50) in test [2] was 1000 to 10000 nM.

In the case of `C=CC1C[C@]1(NC(=O)[C@@H]1C[C@@H](Oc2cc(-c3ccccc3)nc3cc(OC)ccc23)CN1C(=O)[C@@H](NC(=O)OC(C)(C)C)C(C)(C)C)C(=O)NS(=O)(=O)C1CCS(=O)(=O)C1` (mixture of isomers) [Compound 13, {1-[2-[1-(1,1-Dioxo-tetrahydro-1H-1[…]6-thiophene-3(R/S)-sulfonylaminocarbonyl)-2-vinylcyclopropylcarbamoyl]-4-(7-methoxy-2-phenyl-quinolin-4-yloxy)pyrrolidine-1-carbonyl]-2,2-dimethylpropyl}carbamic acid tert-butyl ester], the IC50 in test [1] is less than 100 nM. Also, the concentration for a half-maximal effect (EC50) in test [2] is 100 to 1000 nM.
